Consider one molecule from patent EP0423240B1, “MODULATION OF VIRUS-HOST CELL INTERACTIONS USING CYCLIC OLIGOSACCHARIDES” (THE TRUSTEES OF THE UNIVERSITY OF PENNSYLVANIA, priority 1988, dated 1990).

Converted amounts (≈) assume the structure as drawn.

The test system of data set [1] is HTLV-IIIb cell free virus. In words: Reverse transcriptase assay of HIV infectivity, cell free virus on target cells, 10 day incubation. The conditions noted are these: 1/2 dilutions from 2.5 mM, result in words. It counts as cell-based, HIV-1. How it is done: Figure 2 illustrates the effects of cyclodextrin and cyclodextrin derivatives on HIV infectivity as determined by reverse transcriptase activity. Samples assayed are (A) untreated control cells, (B) β-cyclodextrin unsubstituted ring, (C) partially sulfated β-cyclodextrin ring, (D) propylated β-cyclodextrin ring, (E) sulfated β-cyclodextrin ring, and (F) methylated β-cyclodextrin ring. Numbers indicate 1/2 dilutions of test compounds with 1 = 2.5 mM concentration of compound.
Virus infected cells were pelleted by centrifugation and 50 µl of culture suprenatant was collected from each well for assay. Culture supernatant (25 µl) was plated in 96 well round bottomed plates and 50 µl of transcriptase cocktail was added to each well. Cocktail is 50 mM Tris-HC1, pH 8.0, 20 mM DTT, 0.6 mM MnC1₂, 60 mM NaC1, 0.05% NP-40, 5 µg/ml dt (oligodeoxythymidilic acid), 10 µg/ml poly A (polyriboadenylic acid), 10 µM dTTP, 1 Ci/mm ³²P dTTP. Plates were then incubated for 60 minutes at 37°C. After incubation samples were spotted onto Whatman DEAE-81 paper, washed and analyzed by counting or direct autoradiography.
The ability of cyclodextrins to inhibit HIV infection was assessed in vitro utilizing reverse transcriptase assays as described Section 6.1.2, supra. HTLV-IIIb cell free virus stocks were inoculated onto target cells in the presence or absence of the synthetic compounds.

Data set [2] has as its system HIV-1. Description: HIV-1 induced syncytia assay, IIIb infected H9 cells cocultured with Supt-1 target cells. The following applies: for number of syncytia formed: HIV-1, number and size of syncytia. The data set is classed as cell-based. Here is the method:
(§1) For the assay of HIV-1 fusion, Supt T1 cells were used as target cells. They fuse rapidly when cocultured with HIV-1 (H9/IIIb) producing cell lines. For the assay of HIV-2 mediated cell fusion, H9 cells were used as target cells. They fuse rapidly when cocultured with HIV-2 (CEMROD-2) producing cell lines. HIV infected cells were plated in 96 well plates (10⁴ cells/well in RPMI 1640 + 10% FCS) and incubated with or without dilution of compounds for 30 minutes at 37°C. Target cells are then added 5 x 10⁵/well and the number of syncytia are qualitatively determined after the incubation periods described in the text.
In a series of additional experiments, analysis of HIV-1 induced syncytia was performed by coculturing H9 cells infected with the IIIb isolate with uninfected Supt-1 (a human CD4+ T cell line) cells as targets. […]

Another data set concerns HIV-2. Description: HIV-2 induced syncytia assay, ROD-2 infected cells cocultured with H9 target cells. It counts as cell-based. The following applies: HIV-2, number and size of syncytia. How it is done: as §1, with “text. […]” for “text.”
Another data set in a line: Water solubility at 0°C. The following applies: 0°C, H₂O. It counts as physicochemical. How it is done: The cyclic oligosaccharide derivatives useful in the present invention are highly hydrophilic and therefore very water soluble. A highly hydrophilic character probably is important to allow interaction with cellular surfaces. The hydrophilic activity is likely roughly indicated by the affinity to water, as measured by water solubility. It is important to measure the same at 0°C since at higher temperatures the most suitable derivative have solubilities so high that meaningful measurements are difficult.

The subject of data set [3] is HIV-1. Description: Viral RNA analysis by dot blot. The data set is classed as cell-based. The conditions noted are these: target cells infected in the presence of compound, 1 mM, 72 hours post-infection. Here is the method:
Virus particles were incubated with target cells in the presence or absence of […] of β-CD-14S. At 72 hours post infection, the cells were washed and dot blot assays were performed to determine the presence or absence of viral RNA production. In (A), target cells were infected in the presence of sulfated β-cyclodextrin (lane A), in the absence of cyclodextrins (lane B), or in the presence of unsubstituted β-cyclodextrin (lane C). 1/2 dilutions of cells are from left to right starting with 10⁶ cell/well utilized. In (B), virally infected cells (+) or uninfected cells (-) were assayed for their ability to produce viral RNA by dot blot analysis. CD = infected cells incubated with 1 mM of β-CD-14S. 1/2 dilutions of cells are from top to bottom starting with 10⁶ cell/well.
Virus treated cells were grown in tissue culture and harvested for assay at 72 hrs. post-infection. The cell concentrations were then adjusted to 1 x 10⁶ cells/m1 with phosphate buffered saline and spotted directly onto prewetted gene screen utilizing a dot blot apparatus. The filter was then fixed in 3% NaC1, 10 mM NaH₂PO₄, (pH 7.2) containing 1% gluteraldehyde at 4°C for 1 hr. The fixed blot was then rinsed three times with proteolytic buffer (50mM EDTA, 0.1 M Tris-HC1 (pH 8.0), 20 µg/ml proteinase K) for 30 minutes at 37°C. The filter was air dried until being probed. A Sall-Xho1 probe derived from the pIIIenv1 plasmid (a generous gift of Dr. J. Sodrofsky) and encoding the envelope region of the HXB2, HIV-1 virus was labeled by the random primer method using standard technology and hybridized to the filter as previously described (Weiner et al., 1986, Cell Immunol. 100:197).
To determine if the cyclodextrins were interfering with steps relevant to viral replication, the ability of these compounds to inhibit viral nucleic acid synthesis was determined. Virus particles were incubated with target cells in the presence or absence of 1 mM of β-CD-14S. At 72 hours post-infection, the cells were washed and dot blot assays were performed to determine the presence or absence of viral RNA production. […]

Broadly, the solubility is the dissolved amount per volume that the medium holds. `OC[C@H]1O[C@@H]2O[C@H]3[C@H](O)[C@@H](O)[C@@H](O[C@H]4[C@H](O)[C@@H](O)[C@@H](O[C@H]5[C@H](O)[C@@H](O)[C@@H](O[C@H]6[C@H](O)[C@@H](O)[C@@H](O[C@H]7[C@H](O)[C@@H](O)[C@@H](O[C@H]8[C@H](O)[C@@H](O)[C@@H](O[C@H]1[C@H](O)[C@H]2O)O[C@@H]8CO)O[C@@H]7CO)O[C@@H]6CO)O[C@@H]5CO)O[C@@H]4CO)O[C@@H]3CO` [Beta-CD, β-cyclodextrin, reference compound]: the “inhibition of viral infectivity (reverse transcriptase activity)” value in data set [1] was “no inhibition of viral infectivity”. Also, the “number of syncytia formed” value in the data set with HIV-1 [2] (1.3 mM), in the data set with HIV-1 [2] (2.5 mM), in the data set with HIV-1 [2] (.01 mM), in the data set with HIV-1 [2] (.02 mM), in the data set with HIV-1 [2] (.04 mM) and in the data set with HIV-1 [2] (.08 mM) was 4 L throughout. Moreover, the “number of syncytia formed” value in the data set on HIV-1 [2] (.16 mM), in the data set on HIV-1 [2] (.32 mM), in the data set on HIV-1 [2] (.63 mM), in the data set on HIV-2 (1.3 mM), in the data set on HIV-2 (2.5 mM) and with HIV-2 (.01 mM) was 4 L throughout. For the same molecule, the “number of syncytia formed” value in the data set with HIV-2 (.02 mM), in the data set on HIV-2 (.04 mM), in the data set on HIV-2 (.08 mM), in the data set with HIV-2 (.16 mM), in the data set on HIV-2 (.32 mM) and in the data set on HIV-2 (.63 mM) was 4 L in each case. In addition, the “inhibiting syncytia formation of HIV-1” value in the data set on HIV-1 [2] (result in words) is reported as “as ineffective as media alone”. This molecule also had a solubility in the data set “Water solubility at 0°C” of 7000 µg/mL (≈ 6.17 mM). The “HIV-1 specific RNA” value in the data set on HIV-1 [3] is “substantial viral RNA was detected”.
